According to US20110281802A1, “COMPOSITION FOR TREATMENT AND PREVENTION OF HAIR LOSS AND PREMATURE GRAYING OF HAIR” (Immudiagnostik AG, priority 2007, published 2011):

Test system: Prolactin
Assay: Immunohistochemical staining of treated hair follicles for prolactin (assay #6)
Format: cell-based, human
Settings: 10 pg/mL and 100 pg/mL, few hair follicles, very preliminary
Procedure: The staining was performed according to the following protocol:
A. Prolactin: Pre-treatment with 0.5% Triton X (Fluka, Sigma Aldrich, Taufkirchen, Germany; CatNo 93420) in TBS for 10 minutes at room temperature, three washings in TBS for five minutes each, treatment with 0.6% H2O2 in methanol three times for 15 minutes, washes in TBS. Pre-incubation with 10% rabbit serum (Dako Cytomation, CatNo X0902) in TBS with 3% BSA for 20 minutes, incubation with primary antibody (goat anti-human prolactin, Santa Cruz Biotechnology, Inc., Santa Cruz, Calif., USA; CatNo SC-7805), dilution 1:100 in TBS+2% rabbit serum (Dako Cytomation, CatNo X0902) overnight at 4° C. Thereafter washes in TBS. Incubation with secondary antibody (rabbit anti-goat-biotinylated, DAKO Cytomation, CatNo E0466) diluted to 1:200 with 2% rabbit serum in TBS for 45 minutes at room temperature. Treatment with Avidin Biotin Complex-alkaline phosphatase (Vector Laboratories, Burlingame, Calif., USA; CatNo AK-5000) for 30 minutes, then washing in TBS. Thereafter treatment with Fast Red Tablets (Sigma-Aldrich, CatNo F4648-50SET) for 6 minutes. Counterstaining with Mayer's Haemalaun (Chroma Muenster, CatNo 2E038) and mounting with Aquamount (DAKO Cytomation, CatNo S3025).
In both assays human pituitary gland was set as positive control and negative control were hair follicles treated without the primary antibody.

thymulin
Immunoreactivity for Prolactin in treated hair follicles (in words): some additional staining in the IRS
